Results taken from ChEMBL document CHEMBL1201862, “PubChem BioAssay data set” (2004).
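Cultured in 96-well plates, cells were exposed to test compound for 48 hours across five concentrations. GI50: concentration for 50% inhibition of growth.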 Active and inactive are the calls of the source. Cut-off read from the data, not from the text of the source: active = GI50 up to about 1.1 µM and inactive = higher.

Columns and labels:
Assay in all cases: DTP human tumour cell line panel, 48 h
SK-MEL-5 = system: SK-MEL-5
Malme-3M = system: Malme-3M
MOLT-4 = system: MOLT-4
SNB-78 = system: SNB-78
HT-29 = system: HT-29
NCI-H226 = system: NCI-H226
SNB-19 = system: SNB-19
SN12C = system: SN12C
NCI-H522 = system: NCI-H522
SR = system: SR
SF-268 = system: SF-268
OVCAR-5 = system: OVCAR-5
U-251 = system: U-251
UO-31 = system: UO-31
COLO 205 = system: COLO 205
MCF7 = system: MCF7
CAKI-1 = system: CAKI-1
LOX IMVI = system: LOX IMVI
OVCAR-8 = system: OVCAR-8
Hs-578T = system: Hs-578T

Compound	GI50 (SK-MEL-5)	GI50 (Malme-3M)	GI50 (MOLT-4)	GI50 (SNB-78)	GI50 (HT-29)	GI50 (NCI-H226)	GI50 (SNB-19)	GI50 (SN12C)	GI50 (NCI-H522)	GI50 (SR)	GI50 (SF-268)	GI50 (OVCAR-5)	GI50 (U-251)	GI50 (UO-31)	GI50 (COLO 205)	GI50 (MCF7)	GI50 (CAKI-1)	GI50 (LOX IMVI)	GI50 (OVCAR-8)	GI50 (Hs-578T)
c1ccc(CCn2cncn2)cc1	> 100 µM (inactive)	> 100 µM (inactive)	> 100 µM (inactive)	> 100 µM (inactive)	> 100 µM (inactive)	> 100 µM (inactive)	> 100 µM (inactive)	> 100 µM (inactive)	> 100 µM (inactive)	> 100 µM (inactive)	> 100 µM (inactive)	> 100 µM (inactive)	> 100 µM (inactive)	> 100 µM (inactive)	> 100 µM (inactive)	–	–	–	–	–
CC(C)=CCC/C(C)=C/CCC1(C)C=Cc2c(c3ccccc3oc2=O)O1 (stereo not given)	14.7 µM (inactive)	27.6 µM (inactive)	20.6 µM (inactive)	> 56.2 µM (inactive)	18.8 µM (inactive)	16.1 µM (inactive)	20.5 µM (inactive)	16.8 µM (inactive)	14.7 µM (inactive)	–	20.6 µM (inactive)	18.6 µM (inactive)	15.3 µM (inactive)	15.5 µM (inactive)	19.1 µM (inactive)	16.5 µM (inactive)	17.2 µM (inactive)	18 µM (inactive)	16.7 µM (inactive)	–
COc1cc2c(cc1OC)-c1cc3ccccc3c[n+]1CC2	22.9 µM (inactive)	25.4 µM (inactive)	> 100 µM (inactive)	–	> 100 µM (inactive)	> 100 µM (inactive)	> 100 µM (inactive)	39.6 µM (inactive)	18.8 µM (inactive)	68.2 µM (inactive)	27.5 µM (inactive)	> 100 µM (inactive)	33.6 µM (inactive)	> 100 µM (inactive)	37.6 µM (inactive)	70.3 µM (inactive)	> 100 µM (inactive)	> 100 µM (inactive)	> 100 µM (inactive)	23.8 µM (inactive)
CCOC(=O)/C=C(\C)c1ccc(Cl)cc1	–	> 100 µM (inactive)	> 100 µM (inactive)	> 100 µM (inactive)	> 100 µM (inactive)	54.8 µM (inactive)	> 100 µM (inactive)	> 100 µM (inactive)	–	> 100 µM (inactive)	> 100 µM (inactive)	> 100 µM (inactive)	> 100 µM (inactive)	> 100 µM (inactive)	> 100 µM (inactive)	–	> 100 µM (inactive)	> 100 µM (inactive)	> 100 µM (inactive)	–
O=C(Nc1cccc(O)c1)C(=O)C(C(=O)c1ccccc1F)C1OC(=O)c2ccccc21 (stereo not given)	36.1 µM (inactive)	–	28.6 µM (inactive)	24.2 µM (inactive)	36.7 µM (inactive)	17.2 µM (inactive)	19.9 µM (inactive)	19.4 µM (inactive)	17.3 µM (inactive)	24.9 µM (inactive)	19.6 µM (inactive)	57 µM (inactive)	11.6 µM (inactive)	32.1 µM (inactive)	23.2 µM (inactive)	–	32.9 µM (inactive)	22.9 µM (inactive)	14.6 µM (inactive)	–
CC1=NC=C(O)c2ccccc2O1	–	> 100 µM (inactive)	> 100 µM (inactive)	> 100 µM (inactive)	> 100 µM (inactive)	–	> 100 µM (inactive)	> 100 µM (inactive)	–	–	> 100 µM (inactive)	–	> 100 µM (inactive)	85.5 µM (inactive)	> 100 µM (inactive)	–	–	> 100 µM (inactive)	> 100 µM (inactive)	–
COC1=C2CC(C)CC(OC)C(O)C(C)/C=C(\C)C(OC(N)=O)C(OC)/C=C\C=C(/C)C(=O)NC(=C(/C=N/C(C)(C)C)C1=O)C2=O (stereo not given)	2.79 µM (inactive)	1.89 µM (inactive)	3.44 µM (inactive)	13.9 µM (inactive)	3.19 µM (inactive)	1.75 µM (inactive)	4.85 µM (inactive)	2.04 µM (inactive)	0.279 µM (active)	–	6.3 µM (inactive)	37.3 µM (inactive)	1.43 µM (inactive)	8.81 µM (inactive)	1.31 µM (inactive)	2.89 µM (inactive)	3.08 µM (inactive)	4.41 µM (inactive)	5 µM (inactive)	–
CCN(CC)/[N+]([O-])=N/OC	> 100 µM (inactive)	–	> 100 µM (inactive)	> 100 µM (inactive)	> 100 µM (inactive)	> 100 µM (inactive)	> 100 µM (inactive)	> 100 µM (inactive)	> 100 µM (inactive)	> 100 µM (inactive)	> 100 µM (inactive)	> 100 µM (inactive)	> 100 µM (inactive)	> 100 µM (inactive)	–	–	–	> 100 µM (inactive)	> 100 µM (inactive)	–
CCOC(=O)/C=C/c1c(C)[nH]c(=O)[nH]c1=O	> 250 µM (inactive)	> 250 µM (inactive)	> 250 µM (inactive)	> 250 µM (inactive)	> 250 µM (inactive)	> 250 µM (inactive)	> 250 µM (inactive)	> 250 µM (inactive)	102 µM (inactive)	–	> 250 µM (inactive)	> 94.4 µM (inactive)	> 250 µM (inactive)	> 250 µM (inactive)	> 250 µM (inactive)	244 µM (inactive)	191 µM (inactive)	> 250 µM (inactive)	212 µM (inactive)	–
CC1(C)O[C@@H](C[C@]2(C#N)C[C@H](CCl)OC(C)(C)O2)C[C@@H](C#N)O1	> 100 µM (inactive)	> 100 µM (inactive)	> 100 µM (inactive)	> 100 µM (inactive)	> 100 µM (inactive)	> 100 µM (inactive)	> 100 µM (inactive)	> 100 µM (inactive)	> 100 µM (inactive)	> 100 µM (inactive)	> 100 µM (inactive)	> 100 µM (inactive)	> 100 µM (inactive)	> 100 µM (inactive)	> 100 µM (inactive)	–	> 100 µM (inactive)	> 100 µM (inactive)	> 100 µM (inactive)	–
C=C1C[C@@H]2C[C@@H](C)CC(O)[C@]2(CCCN)C1O (stereo not given in full)	> 100 µM (inactive)	> 100 µM (inactive)	> 100 µM (inactive)	> 100 µM (inactive)	> 100 µM (inactive)	> 100 µM (inactive)	> 100 µM (inactive)	> 100 µM (inactive)	> 100 µM (inactive)	> 100 µM (inactive)	> 100 µM (inactive)	> 100 µM (inactive)	> 100 µM (inactive)	> 100 µM (inactive)	> 100 µM (inactive)	–	> 100 µM (inactive)	> 100 µM (inactive)	> 100 µM (inactive)	–
C=C(C)C(=O)O[C@H]1CC2=C[C@@H](C[C@@]3(C)O[C@@H]3[C@H]3OC(=O)C(=C)[C@@H]31)OC2=O [ELEPHANTOPIN]	4.29 µM (inactive)	2.12 µM (inactive)	0.412 µM (active)	2.09 µM (inactive)	2.48 µM (inactive)	10.2 µM (inactive)	13.3 µM (inactive)	4.03 µM (inactive)	0.593 µM (active)	–	0.818 µM (active)	6.55 µM (inactive)	6.49 µM (inactive)	6.07 µM (inactive)	0.885 µM (active)	1.14 µM (inactive)	1.86 µM (inactive)	0.31 µM (active)	0.505 µM (active)	–
COc1cc(O)c2c(c1)C(=O)c1cc(C)cc(O)c1C2=O [PHYSCION]	> 100 µM (inactive)	> 100 µM (inactive)	> 100 µM (inactive)	> 100 µM (inactive)	> 100 µM (inactive)	> 100 µM (inactive)	> 100 µM (inactive)	> 100 µM (inactive)	78.5 µM (inactive)	> 100 µM (inactive)	> 100 µM (inactive)	> 100 µM (inactive)	> 100 µM (inactive)	> 100 µM (inactive)	> 100 µM (inactive)	–	> 100 µM (inactive)	> 100 µM (inactive)	> 100 µM (inactive)	–
